Laboratory results: patent US9856216B2, “Compounds as TNIK, IKKε and TBK1 inhibitors and pharmaceutical composition comprising same” (GREEN CROSS CORPORATION, priority 2015, dated 2018)

Target: T1, TNIK (Homo sapiens, UniProt Q9UKE5)
T1 construct: purchased Promega V4158
Test: ADP-Glo Kinase Assay, inhibition activity on TNIK
Assay type: biochemical
Conditions: read-out: TNIK
Method: The inhibition activities on TNIK, IKKε and TBK1 were measured by a luminometer, TNIK/IKKε/TBK1 Kinase Enzyme System (Promega, Ca# V4158; Invitrogen, PR8031B, Promega, Ca# V3991) and ADP-Glo Kinase Assay using ADP-Glo™ Kinase Analysis Kit (Promega, Ca# V9101) and a kinase reaction buffer [40 mM Tris(pH 7.5), 20 mM MgCl2, 0.1 mg/mL BSA] in accordance with the manufacturer's protocol.

T1 sequence (Q9UKE5 1-367 limits assumed): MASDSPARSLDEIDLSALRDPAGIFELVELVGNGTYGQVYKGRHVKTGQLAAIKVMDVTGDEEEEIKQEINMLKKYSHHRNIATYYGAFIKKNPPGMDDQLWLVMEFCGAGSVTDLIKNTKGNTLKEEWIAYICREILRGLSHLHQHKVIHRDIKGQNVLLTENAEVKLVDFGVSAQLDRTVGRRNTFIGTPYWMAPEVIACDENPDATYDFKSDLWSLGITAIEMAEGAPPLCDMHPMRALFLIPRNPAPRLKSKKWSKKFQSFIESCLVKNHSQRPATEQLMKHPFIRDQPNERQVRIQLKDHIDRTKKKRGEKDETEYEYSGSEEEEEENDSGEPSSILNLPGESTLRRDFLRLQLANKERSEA

SMILES | IC50 [nM]
COc1ccccc1C(=O)Nc1ccc(Nc2ccccc2)c2c1C(=O)NC2 [Example 432, 2-Methoxy-N-(3-oxo-7-(phenylamino)isoindolin-4-yl) benzamide] | 12200
COc1ccc(C(=O)Nc2ccc(Nc3ccccc3)c3c2C(=O)NC3)cc1 [Example 433, 4-Methoxy-N-(3-oxo-7-(phenylamino)isoindolin-4-yl) benzamide] | 400
COc1cccc(C(=O)Nc2ccc(Nc3ccccc3)c3c2C(=O)NC3)c1 [Example 434, 3-Methoxy-N-(3-oxo-7-(phenylamino)isoindolin-4-yl) benzamide] | 670
CC(=O)Nc1ccc(C(=O)Nc2ccc(Nc3ccccc3)c3c2C(=O)NC3)cc1 [Example 435, 4-Acetamido-N-(3-oxo-7-(phenylamino)isoindolin-4-yl) benzamide] | 210
Cc1cccc(Nc2ccc(NC(=O)c3ccccc3)c3c2CNC3=O)c1 [Example 436, N-(3-oxo-7-(m-tolylamino)isoindolin-4-yl)benzamide] | 590
O=C(Nc1ccc(Nc2cc[nH]n2)c2c1C(=O)NC2)c1ccc(F)cc1 [Example 437] | 2900
O=C(Nc1ccc(Nc2ccccc2)c2c1C(=O)NC2)c1ccc(NCCN2CCCC2)cc1 [Example 438, N-(3-oxo-7-(phenylamino)isoindolin-4-yl)-4-((2-(pyrrolidin-1-yl)ethyl)amino)benzamide] | 160
O=C(Nc1ccc(Nc2ccccc2)c2c1C(=O)NC2)c1ccc(NCCN2CCCCC2)cc1 [Example 439, N-(3-oxo-7-(phenylamino)isoindolin-4-yl)-4-((2-(piperidin-1-yl)ethyl)amino)benzamide] | 150
CN(C)CCNc1ccc(C(=O)Nc2ccc(Nc3ccccc3)c3c2C(=O)NC3)cc1 [Example 441] | 240
O=C(Nc1ccc(Nc2ccccc2)c2c1C(=O)NC2)c1ccc(NCCN2CCOCC2)cc1 [Example 442, 4-((2-Morpholinoethyl)amino)-N-(3-oxo-7-(phenylamino)isoindolin-4-yl)benzamide] | 150
CN1CCN(CCNc2ccc(C(=O)Nc3ccc(Nc4ccccc4)c4c3C(=O)NC4)cc2)CC1 [Example 443, 4-((2-(4-Methylpiperazin-1-yl)ethyl)amino)-N-(3-oxo-7-(phenylamino)isoindolin-4-yl)benzamide] | 120
COCCNc1ccc(C(=O)Nc2ccc(Nc3ccccc3)c3c2C(=O)NC3)cc1 [Example 444, 4-((2-Methoxyethyl)amino)-N-(3-oxo-7-(phenylamino)isoindolin-4-yl)benzamide] | 110
COc1cccc(Nc2ccc(NC(=O)c3ccc(NCCN4CCCC4)cc3)c3c2CNC3=O)c1 [Example 445, N-(7-((3-methoxyphenyl)amino)-3-oxoisoindolin-4-yl)-4-((2-(pyrrolidin-1-yl)ethyl)amino)benzamide] | 550
COc1cccc(Nc2ccc(NC(=O)c3ccc(NCCN4CCCCC4)cc3)c3c2CNC3=O)c1 [Example 446, N-(7-((3-methoxyphenyl)amino)-3-oxoisoindolin-4-yl)-4-((2-(piperidin-1-yl)ethyl)amino)benzamide] | 630
COc1cccc(Nc2ccc(NC(=O)c3ccc(NCCCN4CCCC4)cc3)c3c2CNC3=O)c1 [Example 447, N-(7-((3-methoxyphenyl)amino)-3-oxoisoindolin-4-yl)-4-((3-(pyrrolidin-1-yl)propyl)amino)benzamide] | 550
COc1cccc(Nc2ccc(NC(=O)c3ccc(NCCCN4CCCCC4)cc3)c3c2CNC3=O)c1 [Example 448] | 620
Cc1cccc(Nc2ccc(NC(=O)c3ccc(NCCN4CCCC4)cc3)c3c2CNC3=O)c1 [Example 449, N-(3-oxo-7-(m-tolylamino)isoindolin-4-yl)-4-((2-(pyrrolidin-1-yl)ethyl)amino)benzamide] | 590
Cc1cccc(Nc2ccc(NC(=O)c3ccc(NCCN4CCCCC4)cc3)c3c2CNC3=O)c1 [Example 450, N-(3-oxo-7-(m-tolylamino)isoindolin-4-yl)-4-((2-(piperidin-1-yl)ethyl)amino)benzamide] | 580
Cc1cccc(Nc2ccc(NC(=O)c3ccc(NCCCN4CCCC4)cc3)c3c2CNC3=O)c1 [Example 451, N-(3-oxo-7-(m-tolylamino)isoindolin-4-yl)-4-((3-(pyrrolidin-1-yl)propyl)amino)benzamide] | 480
Cc1cccc(Nc2ccc(NC(=O)c3ccc(NCCCN4CCCCC4)cc3)c3c2CNC3=O)c1 [Example 452, N-(3-oxo-7-(m-tolylamino)isoindolin-4-yl)-4-((3-(piperidin-1-yl)propyl)amino)benzamide] | 440

SMILES | IC50 [nM]
O=C(Nc1ccc(Nc2ccccc2Cl)c2c1C(=O)NC2)c1ccc(NCCN2CCCC2)cc1 [Example 453, N-(7-((2-chlorophenyl)amino)-3-oxoisoindolin-4-yl)-4-((2-(pyrrolidin-1-yl)ethyl)amino)benzamide] | 510
O=C(Nc1ccc(Nc2ccccc2Cl)c2c1C(=O)NC2)c1ccc(NCCN2CCCCC2)cc1 [Example 454, N-(7-((2-chlorophenyl)amino)-3-oxoisoindolin-4-yl)-4-((2-(piperidin-1-yl)ethyl)amino)benzamide] | 530
O=C(Nc1ccc(Nc2cccc(Cl)c2)c2c1C(=O)NC2)c1ccc(NCCN2CCCC2)cc1 [Example 455, N-(7-((3-chlorophenyl)amino)-3-oxoisoindolin-4-yl)-4-((2-(pyrrolidin-1-yl)ethyl)amino)benzamide] | 200
O=C(Nc1ccc(Nc2cccc(Cl)c2)c2c1C(=O)NC2)c1ccc(NCCN2CCCCC2)cc1 [Example 456, N-(7-((3-chlorophenyl)amino)-3-oxoisoindolin-4-yl)-4-((2-(piperidin-1-yl)ethyl)amino)benzamide] | 340
O=C(Nc1ccc(Nc2cccc(Cl)c2)c2c1C(=O)NC2)c1ccc(NCCCN2CCCC2)cc1 [Example 457, N-(7-((3-chlorophenyl)amino)-3-oxoisoindolin-4-yl)-4-((3-(pyrrolidin-1-yl)propyl)amino)benzamide] | 150
O=C(Nc1ccc(Nc2cccc(Cl)c2)c2c1C(=O)NC2)c1ccc(NCCCN2CCCCC2)cc1 [Example 458, N-(7-((3-chlorophenyl)amino)-3-oxoisoindolin-4-yl)-4-((3-(piperidin-1-yl)propyl)amino)benzamide] | 240
O=C(Nc1ccc(Nc2ccccc2)c2c1C(=O)NC2)c1ccc(NCCCN2CCCC2=O)cc1 [Example 459, N-(3-oxo-7-(phenylamino)isoindolin-4-yl)-4-((3-(2-oxopyrrolidin-1-yl)propyl)amino)benzamide] | 210
CN(C)CCCNc1ccc(C(=O)Nc2ccc(Nc3ccccc3)c3c2C(=O)NC3)cc1 [Example 460, 4-((3-(Dimethylamino)propyl)amino)-N-(3-oxo-7-(phenylamino)isoindolin-4-yl)benzamide] | 140
O=C(Nc1ccc(Nc2ccccc2)c2c1C(=O)NC2)c1ccc(NCCCN2CCOCC2)cc1 [Example 461, 4-((3-Morpholinopropyl)amino)-N-(3-oxo-7-(phenylamino)isoindolin-4-yl)benzamide] | 380
O=C(Nc1ccc(Nc2ccccc2)c2c1C(=O)NC2)c1ccc(NCCCN2CCCC2)cc1 [Example 462, N-(3-oxo-7-(phenylamino)isoindolin-4-yl)-4-((3-(pyrrolidin-1-yl)propyl)amino)benzamide] | 290
CN1CCN(CCCNc2ccc(C(=O)Nc3ccc(Nc4ccccc4)c4c3C(=O)NC4)cc2)CC1 [Example 463, 4-((3-(4-Methylpiperazin-1-yl)propyl)amino)-N-(3-oxo-7-(phenylamino)isoindolin-4-yl)benzamide] | 370
O=C(Nc1ccc(Nc2ccccc2)c2c1C(=O)NC2)c1ccc(NCCCO)cc1 [Example 464, 4-((3-Hydroxypropyl)amino)-N-(3-oxo-7-(phenylamino)isoindolin-4-yl)benzamide] | 74
O=C(Nc1ccc(Nc2cc(C(F)(F)F)cc(C(F)(F)F)c2)c2c1C(=O)NC2)c1ccc(NCCN2CCCC2)cc1 [Example 465, N-(7-((3,5-bis(trifluoromethyl)phenyl)amino)-3-oxoisoindolin-4-yl)-4-((2-(pyrrolidin-1-yl)ethyl)amino)benzamide] | > 20000
O=C(Nc1ccc(Nc2cc(C(F)(F)F)cc(C(F)(F)F)c2)c2c1C(=O)NC2)c1ccc(NCCCN2CCCC2)cc1 [Example 466, N-(7-((3,5-bis(trifluoromethyl)phenyl)amino)-3-oxoisoindolin-4-yl)-4-((3-(pyrrolidin-1-yl)propyl)amino)benzamide] | 14000
O=C(Nc1ccc(Nc2cc(C(F)(F)F)cc(C(F)(F)F)c2)c2c1C(=O)NC2)c1ccc(NCCN2CCCCC2)cc1 [Example 467, N-(7-((3,5-bis(trifluoromethyl)phenyl)amino)-3-oxoisoindolin-4-yl)-4-((2-(piperidin-1-yl)ethyl)amino)benzamide] | > 20000
O=C(Nc1ccc(Nc2cc(C(F)(F)F)cc(C(F)(F)F)c2)c2c1C(=O)NC2)c1ccc(NCCCN2CCCCC2)cc1 [Example 468, N-(7-((3,5-bis(trifluoromethyl)phenyl)amino)-3-oxoisoindolin-4-yl)-4-((3-(piperidin-1-yl)propyl)amino)benzamide] | 17100
Cc1cccc(Nc2ccc(NC(=O)c3ccc(NCCN4CCCC4)cc3)c3c2CNC3=O)c1C [Example 469, N-(7-((2,3-dimethylphenyl)amino)-3-oxoisoindolin-4-yl)-4-((2-(pyrrolidin-1-yl)ethyl)amino)benzamide] | 370
Cc1cccc(Nc2ccc(NC(=O)c3ccc(NCCCN4CCCC4)cc3)c3c2CNC3=O)c1C [Example 470, N-(7-((2,3-dimethylphenyl)amino)-3-oxoisoindolin-4-yl)-4-((3-(pyrrolidin-1-yl)propyl)amino)benzamide] | 470
Cc1cccc(Nc2ccc(NC(=O)c3ccc(NCCN4CCCCC4)cc3)c3c2CNC3=O)c1C [Example 471, N-(7-((2,3-dimethylphenyl)amino)-3-oxoisoindolin-4-yl)-4-((2-(piperidin-1-yl)ethyl)amino)benzamide] | 610
